Source: article PMC7830863, “Characterization of Cross-Linked Enzyme Aggregates of the Y509E Mutant of a Glycoside Hydrolase Family 52 β-xylosidase from G. stearothermophilus” (Molecules, 2021)

Biological target: T1, XynB2 (Geobacillus stearothermophilus, UniProt Q09LZ0, Y509E)
T1 construct: recombinant in E. coli C43 from plasmid pJAVI100 (template pJAVI91); semi-purified by heat treatment (45 °C, 30 min) and dialysis; all rows Y509E
Experiment: p-nitrophenol release at […] nm, hyperbolic fit
Format: biochemical
Conditions: free semi-purified (heat-treated extract) enzyme; 100 mM citrate phosphate-glycine buffer, pH 6.5, 50 °C

T1 sequence (Q09LZ0 entry or part of it Y509E): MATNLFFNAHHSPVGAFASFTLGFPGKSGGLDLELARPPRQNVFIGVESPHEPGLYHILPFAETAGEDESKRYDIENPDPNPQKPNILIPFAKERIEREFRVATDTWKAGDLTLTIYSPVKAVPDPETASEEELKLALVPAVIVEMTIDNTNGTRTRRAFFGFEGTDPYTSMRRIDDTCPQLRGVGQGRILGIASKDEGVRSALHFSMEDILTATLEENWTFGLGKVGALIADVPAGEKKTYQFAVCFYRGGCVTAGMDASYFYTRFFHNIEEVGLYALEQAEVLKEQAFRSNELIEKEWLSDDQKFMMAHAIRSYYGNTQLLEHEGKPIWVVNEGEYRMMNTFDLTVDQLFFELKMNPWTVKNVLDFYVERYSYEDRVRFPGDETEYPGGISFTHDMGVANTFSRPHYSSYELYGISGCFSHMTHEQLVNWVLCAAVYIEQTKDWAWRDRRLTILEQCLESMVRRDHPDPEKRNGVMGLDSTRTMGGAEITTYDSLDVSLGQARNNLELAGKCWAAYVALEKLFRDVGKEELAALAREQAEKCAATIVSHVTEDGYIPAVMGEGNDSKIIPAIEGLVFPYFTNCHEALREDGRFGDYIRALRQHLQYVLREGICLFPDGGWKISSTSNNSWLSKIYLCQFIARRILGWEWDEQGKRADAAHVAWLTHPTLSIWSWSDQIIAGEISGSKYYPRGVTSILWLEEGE

O=[N+]([O-])c1ccc(O[C@@H]2OC[C@@H](O)[C@H](O)[C@H]2O)cc1 [p-nitrophenyl-β-d-xylopyranoside]
Km: 900 ± 100 µM
